Columns and labels:
NK-92 cells = assay: IFN-γ production in NK-92 cells (ELISA); assay type: cell-based, human; conditions: IL-12 10 pM, 16 to 24 hours
Protocol: (§1) Two assays show the bioactivity of IL-12 and IL-18 alone. NK-92 is a natural killer line derived from a patient with malignant […] lymphoma. KG-1 is a myelomonocytic line derived from a patient with acute myelogenous leukemia. NK-92 and KG-1 cells constitutively express the IL-12 and IL-18 receptors, respectively.
(§2) KG-1 cells were cultured in serum-free medium for 24 hours, and then plated at 1×10^6 cells/ml in 96-well plates. As indicated, IL-18 (50 nM) or DEX (20 nM) were added. NK-92 cells were cultured in the presence of 10 U/ml IL-2, and plated at 2.5×10^4 viable (Trypan Blue negative) cells/ml in 96-well plates. As indicated, IL-12 (10 pM) or DEX (20 nM) were added. The KG-1 and NK-92 cells were incubated for 16 to 24 hours, and the amount of IFN-γ in the culture medium was determined using the Biosource Cytoscreen IFN-γ ELISA kit.

KG-1 cells = assay: IFN-γ production in KG-1 cells (ELISA); assay type: cell-based, human; conditions: IL-18 50 nM, 16 to 24 hours
Protocol: as §1, §2

Substance	IFN-γ production (NK-92 cells)	IFN-γ production (KG-1 cells)
Interleukin-12 [IL-12]	induce IFN-γ production	
Interleukin-18 [IL-18]		induce IFN-γ production
